From PMC5607459, “Discovery of a Potent Inhibitor Class with High Selectivity toward Clostridial Collagenases” (Journal of the American Chemical Society, 2017) come the findings set out here.

Data set [1] concerns the target T1, ColH-PD (Hathewaya histolytica, UniProt Q46085). As to the kind of experiment: biochemical.
The next data set deals with ColT-PD (Clostridium tetani, UniProt Q899Y1). The data set is described as follows: biochemical. On the set-up: species or system C. tetani. The conditions noted are these: for remaining activity at 100 µM: read-out: residual activity of ColT.
ColT-PD, sequence (Q899Y1 340-731 limits assumed): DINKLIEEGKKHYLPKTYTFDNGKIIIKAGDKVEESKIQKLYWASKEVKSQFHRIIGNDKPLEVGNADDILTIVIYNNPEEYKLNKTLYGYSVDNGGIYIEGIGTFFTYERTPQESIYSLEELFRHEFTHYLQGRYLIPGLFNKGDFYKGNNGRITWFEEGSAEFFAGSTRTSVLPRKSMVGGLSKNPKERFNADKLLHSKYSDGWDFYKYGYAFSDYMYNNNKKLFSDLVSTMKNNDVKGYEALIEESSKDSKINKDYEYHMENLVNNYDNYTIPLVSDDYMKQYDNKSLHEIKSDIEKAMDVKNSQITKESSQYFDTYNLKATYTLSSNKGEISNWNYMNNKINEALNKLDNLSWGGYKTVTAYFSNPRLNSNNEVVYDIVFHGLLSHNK
Data set [2] has as its system MMP-1, -2, -3, -7, -8, and -14. The data set is described as follows: Human MMP inhibition assay, statements on the whole panel. The note with it: for inhibition of the tested MMPs: tested at 100 µM. The data set is classed as biochemical.
Another data set has as its target ColQ1-CU (Bacillus cereus, UniProt B9J3S4). The data set is described as follows: biochemical. On the set-up: species or system Bacillus cereus strain Q1. The note with it: for remaining activity at 100 µM: read-out: residual activity of ColQ1.
Data set [3] addresses T2, catalytic domain of MMP-2 (Homo sapiens, UniProt P08253).
T2 construct: The catalytic domains of MMP-1, -2, -3, -7, -8 and -14; purchased AnaSpec (Fremont, CA, USA)
The data set is described as follows: Human MMP inhibition assay, MMP-2. The data set is classed as biochemical. The note with it: 100 μM compound.

The next data set concerns the target ColG-CU (Hathewaya histolytica, UniProt Q9X721). As to the kind of experiment: biochemical. On the set-up: species or system C. histolyticum. The conditions noted are these: for remaining activity at 100 µM: read-out: residual activity of ColG.
Data set [4] concerns the target T1, ColH-PD.
The nature of a further data set: physchem. The note with it: buffer, pH 7.5.
Data set [5] has as its target T1, ColH-PD. The data set is described as follows: biochemical. Format: binding, Clostridium histolyticum.
A further data set relates to LasB. Format: biochemical, P. aeruginosa.
Data set [6] concerns HEP G2 cells. The note with it: human.
The conditions of data set [7]: 10 mM Hepes pH 7.4 (10% methanol) at 22.5°C, experimental time frame.
The target in data set [8] is T1, ColH-PD. This is another data set of the same source.
The target of data set [9] is catalytic domain of MMP-7 (Homo sapiens, UniProt P09237). As to the kind of experiment: biochemical.
catalytic domain of MMP-7, sequence (P09237 95-267): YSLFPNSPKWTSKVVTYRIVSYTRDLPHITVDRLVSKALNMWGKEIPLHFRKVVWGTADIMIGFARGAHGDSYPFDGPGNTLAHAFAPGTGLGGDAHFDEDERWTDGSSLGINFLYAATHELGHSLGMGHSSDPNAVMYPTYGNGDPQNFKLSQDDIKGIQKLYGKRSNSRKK
Data set [10] has as its system HEP G2 cells. As to the kind of experiment: Cytotoxicity assay. The conditions noted are these: 48 h.
In data set [11] the target is amine-coupled peptidase domain of ColH (ColH-PD) (Hathewaya histolytica, UniProt Q46085).
amine-coupled peptidase domain of ColH (ColH-PD), sequence (Q46085 331-721 limits assumed): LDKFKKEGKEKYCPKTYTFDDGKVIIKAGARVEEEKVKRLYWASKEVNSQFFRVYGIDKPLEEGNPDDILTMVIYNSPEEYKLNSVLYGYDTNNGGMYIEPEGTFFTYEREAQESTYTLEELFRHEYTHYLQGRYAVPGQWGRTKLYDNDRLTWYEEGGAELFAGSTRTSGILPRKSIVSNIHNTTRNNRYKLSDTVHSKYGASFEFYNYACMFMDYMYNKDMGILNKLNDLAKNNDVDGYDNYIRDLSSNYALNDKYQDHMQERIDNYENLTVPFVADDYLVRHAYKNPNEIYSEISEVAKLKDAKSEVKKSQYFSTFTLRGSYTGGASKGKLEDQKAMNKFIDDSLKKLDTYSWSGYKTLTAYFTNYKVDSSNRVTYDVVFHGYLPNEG

“Also recorded” adds a separate entry of the source. Where two headings read alike, the source gives them in different places. Non-standard residues stand in square brackets, D forms with d. Residues, ends and D or L forms follow the SMILES beside them. *: point of attachment. Dnp = O=[N+]([O-])c1ccc(*)c([N+](=O)[O-])c1; Mca = COc1ccc2c(CC(=O)*)cc(=O)oc2c1; Dap = NC[C@H](N)C(=O)O

T1 sequence (Q46085 331-721 limits assumed): as above
ColG-CU, sequence (Q9X721 111-786): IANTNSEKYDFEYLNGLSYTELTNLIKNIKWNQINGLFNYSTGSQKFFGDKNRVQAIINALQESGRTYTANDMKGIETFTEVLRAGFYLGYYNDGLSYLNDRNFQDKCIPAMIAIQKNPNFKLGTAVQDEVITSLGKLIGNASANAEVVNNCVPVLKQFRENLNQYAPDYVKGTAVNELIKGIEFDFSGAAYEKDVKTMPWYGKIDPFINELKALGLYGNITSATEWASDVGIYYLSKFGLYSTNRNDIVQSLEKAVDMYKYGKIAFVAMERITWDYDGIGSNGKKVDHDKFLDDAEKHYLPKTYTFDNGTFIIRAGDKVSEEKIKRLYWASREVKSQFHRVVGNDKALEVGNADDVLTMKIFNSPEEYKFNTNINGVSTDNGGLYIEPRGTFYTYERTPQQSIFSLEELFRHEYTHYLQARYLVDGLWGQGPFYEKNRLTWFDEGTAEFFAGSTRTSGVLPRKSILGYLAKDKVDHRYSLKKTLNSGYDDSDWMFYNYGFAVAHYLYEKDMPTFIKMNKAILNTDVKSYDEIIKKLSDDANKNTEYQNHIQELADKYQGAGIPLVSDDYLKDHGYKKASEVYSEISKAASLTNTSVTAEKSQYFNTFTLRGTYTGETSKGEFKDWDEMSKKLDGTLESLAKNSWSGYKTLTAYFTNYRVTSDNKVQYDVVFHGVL
ColQ1-CU, sequence (B9J3S4 94-765 limits assumed): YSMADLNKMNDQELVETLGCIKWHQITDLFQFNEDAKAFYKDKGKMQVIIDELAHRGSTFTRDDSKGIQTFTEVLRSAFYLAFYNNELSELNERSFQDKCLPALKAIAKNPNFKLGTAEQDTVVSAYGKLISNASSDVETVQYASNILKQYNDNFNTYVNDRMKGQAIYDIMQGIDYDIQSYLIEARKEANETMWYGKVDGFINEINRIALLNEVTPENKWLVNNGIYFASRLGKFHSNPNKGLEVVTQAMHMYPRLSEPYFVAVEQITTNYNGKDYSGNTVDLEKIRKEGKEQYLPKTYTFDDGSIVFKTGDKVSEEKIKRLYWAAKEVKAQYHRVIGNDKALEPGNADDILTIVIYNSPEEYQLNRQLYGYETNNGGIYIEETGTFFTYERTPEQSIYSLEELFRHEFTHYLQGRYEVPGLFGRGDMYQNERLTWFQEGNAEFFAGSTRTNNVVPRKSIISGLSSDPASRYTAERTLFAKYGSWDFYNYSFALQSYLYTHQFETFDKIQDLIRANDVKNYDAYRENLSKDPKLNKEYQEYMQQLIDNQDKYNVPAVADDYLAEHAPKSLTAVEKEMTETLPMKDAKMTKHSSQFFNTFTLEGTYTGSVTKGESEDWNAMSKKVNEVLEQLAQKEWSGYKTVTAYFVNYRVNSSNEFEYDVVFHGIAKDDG
T2 sequence (P08253 110-465 limits assumed): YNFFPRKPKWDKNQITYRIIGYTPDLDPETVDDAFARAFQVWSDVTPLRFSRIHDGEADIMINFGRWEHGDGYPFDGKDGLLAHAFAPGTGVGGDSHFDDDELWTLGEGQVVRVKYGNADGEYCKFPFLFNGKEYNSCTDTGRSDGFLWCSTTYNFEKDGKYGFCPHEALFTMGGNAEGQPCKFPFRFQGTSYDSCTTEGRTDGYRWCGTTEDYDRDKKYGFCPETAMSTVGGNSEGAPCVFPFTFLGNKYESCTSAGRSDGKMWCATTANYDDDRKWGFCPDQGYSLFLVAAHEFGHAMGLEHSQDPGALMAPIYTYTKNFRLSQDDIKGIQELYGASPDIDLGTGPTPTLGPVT

In turn, `NC(=O)SCC(=O)Nc1ccccc1` [Compound 1] yielded an IC50 at ColH-PD [1] of 25000 ± 6000 nM.

Consider `Cc1ccc(NC(=O)CSC(N)=O)cc1C` [Compound 2], for which, on ColH-PD [1], inhibition was half-maximal at 1900 ± 300 nM (IC50). In addition, the inhibition at 40 µM at ColH-PD [1] (read-out: inhibition of ColH-PD) was 82 ± 3%.

As for `CC(=O)c1ccc(NC(=O)CSC(N)=O)cc1` [Compound 3], the remaining activity at 100 µM at ColT-PD is ≤ 5%; on ColH-PD [1] (read-out: residual activity of ColH-PD) it was < 10%; at ColQ1-CU, ≤ 5%; on ColG-CU, ≤ 5%. Besides, the “selectivity for ColH over MMPs” value in data set [2] was “more than 1000 fold”. The “inhibition of the tested MMPs” value in data set [2] was “no or negligible inhibition”. Moreover, the inhibition at 100 µM in data set [3] was found to be 25%.

On to `COC(=O)c1ccc(NC(=O)CSC(N)=O)cc1` [Compound 4], for which the IC50 against ColH-PD [1] stood at 44 ± 7 nM.

The compound `COc1ccc(NC(=O)CSC(N)=O)cc1` [Compound 5] had a 50% inhibitory concentration (IC50) against ColH-PD [1] of 71 ± 9 nM.

Turning to `Cc1ccc(NC(=O)CSC(N)=O)cc1` [Compound 6], 120 ± 10 nM corresponded to half-maximal inhibition against ColH-PD [1] (IC50). In addition, on ColH-PD [4], the “decreased IC50 compared to compound 2” value was found to be 16 fold.

In the data set “physchem”, `NC(=O)SCC(=O)Nc1ccc(Cl)cc1` [Compound 7] had a half-life of 26.8 ± 1.4 min. In addition, the remaining activity at 100 µM on ColT-PD is ≤ 5%. At ColH-PD [5], the affinity, expressed as Kd, was 309 ± 45 nM; the “N (stoichiometry)” value was determined as 0.54 ± 0.05; the ΔG entry was “–8.9 ± 0.1 kcal mol^–1”; the ΔH result is on record as “–12.7 ± 1.2 kcal mol^–1”. At ColH-PD [5], the “–TΔS” value is on record as 3.8 ± 1.3 kcal mol^–1. The compound also yielded an IC50 at ColH-PD [1] of 190 ± 20 nM. Besides, in [2], the “selectivity for ColH over MMPs” value is reported as “more than 1000 fold” and the “inhibition of the tested MMPs” value is listed as “no or negligible inhibition”. On ColQ1-CU, the remaining activity at 100 µM is ≤ 5%. Also, the “decrease in IC50 compared to meta-chloro-substituted counterpart 9” value at ColH-PD [4] came out at 100 fold. In addition, on ColG-CU, the remaining activity at 100 µM was ≤ 5%.

`CCOc1ccc(NC(=O)CSC(N)=O)cc1` [Compound 8] gave an IC50 against ColH-PD [1] of 190 ± 30 nM.

Regarding `NC(=O)SCC(=O)Nc1cccc(Cl)c1` [Compound 9], at ColH-PD [1], the IC50 was found to be 19000 ± 3000 nM.

`NC(=O)SCC(=O)Nc1cccc(F)c1` [Compound 10]: the IC50 at ColH-PD [1] was 23000 ± 3000 nM.

Compound `NC(=O)SCC(=O)Nc1ccccc1Cl` [Compound 12] gave a half-life in the data set “physchem” of 20.6 ± 0.9 min. For the same compound, half-maximal inhibition on ColH-PD [1] (IC50) required 31000 ± 7000 nM.

`CC(=O)c1ccc(NC(=O)CS)cc1` [Compound 13]: in the data set with LasB, the “lower activity toward LasB compared to ColH” value is given as “more than 1000 fold”. For the same compound, the “reduction of viability (%)” value with HEP G2 cells [6] was found to be 17 ± 12%. In addition, the “selectivity against MMPs” value in [2] is reported as “similarly high selectivity against MMPs”.

Take `O=C(CS)Nc1ccc(Cl)cc1` [Compound 14]: at ColH-PD [5], the Kd worked out at 360 ± 38 nM, the “N (stoichiometry)” value was 0.48 ± 0.03, the ΔG entry was “–8.8 ± 0.1 kcal mol^–1” and the ΔH entry is “–15.4 ± 0.3 kcal mol^–1”. Further, at ColH-PD [5], the “–TΔS” value stood at 6.6 ± 0.4 kcal mol^–1. Also, the IC50 at ColH-PD [1] was determined as 210 ± 10 nM. Further, the “reduction of viability (%)” value in the data set on HEP G2 cells [6] is reported as 28 ± 12%. The “selectivity against MMPs” value in data set [2] is “similarly high selectivity against MMPs”.

`O=C(CS)Nc1ccccc1Cl` [Compound 15] registered an IC50 on ColH-PD [1] of 40000 ± 9000 nM.

As to `NC(=O)CCC(=O)Nc1ccccc1` [Compound 16], the “inhibitory activity toward ColH-PD” value against ColH-PD [4] is listed as “devoid of any activity; also recorded: no inhibition”.

On to `CCOc1ccc(NC(=O)CSC(=S)N(CC)CC)cc1` [Compound 17], for which, at ColH-PD [4], the “Inhibition at 100 μM (%)” value is reported as “no inhibition”.

`CCN(CC)C(=S)SCC(=O)Nc1ccc(Br)cc1` [Compound 18]: the “Inhibition at 100 μM (%)” value at ColH-PD [4] is on record as “no inhibition”.

As to `CCN(CC)C(=S)SCC(=O)Nc1ccc(C(C)C)cc1` [Compound 19], the “Inhibition at 100 μM (%)” value on ColH-PD [4] is given as “no inhibition”.

With `CCN(CC)C(=S)SCC(=O)Nc1ccc(F)cc1` [Compound 20], the “Inhibition at 100 μM (%)” value at ColH-PD [4] is “no inhibition”.

For the compound `CCN(CC)C(=S)SCC(=O)Nc1ccc(C(C)=O)cc1` [Compound 21], the “hydrolysis to the corresponding free thiol 13” value in data set [7] was “no hydrolysis”. In addition, the inhibition at 100 µM at ColH-PD [1] (read-out: Inhibition at 100 μM (%)) turned out to be 12 ± 3%.

As for `COc1ccc2c(CC(=O)N[C@@H](C)C(=O)NCC(=O)N3CCC[C@H]3C(=O)N3CCC[C@H]3C(=O)NCC(=O)N3CCC[C@H]3C(=O)N[C@@H](CNc3ccc([N+](=O)[O-])cc3[N+](=O)[O-])C(=O)NCC(=O)N[C@@H](CCCNC(=N)N)C(N)=O)cc(=O)oc2c1` [Mca-Ala-Gly-Pro-Pro-Gly-Pro-Dpa-Gly-Arg-NH2] (Mca-AGPPGP[Dap](Dnp)GR-NH2), at ColH-PD [8], the Km was 62 ± 8 µM.

For `CNC(=O)[C@H](Cc1ccccc1)NC(=O)[C@H](CC(C)C)[C@H](CSc1cccs1)C(=O)NO` [batimastat, reference compound], the IC50 in data set [9] was 7 ± 0.2 nM; in data set [2] (MMP-1, -2, -3, -7, -8, -14, read-out: IC50 values for all of these MMPs), < 10 nM. Besides, the “inhibition of ColT-PD” value at ColT-PD is reported as “inhibited”. The “reduction of viability (%)” value in the data set on HEP G2 cells [6] (48 h, 100 μM) was determined as 13 ± 7%. For the same compound, on ColQ1-CU, the “inhibition of ColQ1-CU” value was “inhibited”. Further, the “inhibition of ColH-PD” value at ColH-PD [4] is recorded as “inhibited”. Moreover, the “inhibition of ColG-CU” value on ColG-CU was “inhibited”.

In the case of `COc1cccc2c1C(=O)c1c(O)c3c(c(O)c1C2=O)C[C@@](O)(C(=O)CO)C[C@@H]3O[C@H]1C[C@H](N)[C@H](O)[C@H](C)O1` [doxorubicin], the “reduction of viability (%)” value in the data set on HEP G2 cells [10] (1 μM) was 50 ± 5%.

As to `CO[C@H]1/C=C/O[C@@]2(C)Oc3c(C)c(O)c4c(O)c(c(/C=N/N5CCN(C)CC5)c(O)c4c3C2=O)NC(=O)/C(C)=C\C=C\[C@H](C)[C@H](O)[C@@H](C)[C@@H](O)[C@@H](C)[C@H](OC(C)=O)[C@@H]1C` [rifampicin], in the data set on HEP G2 cells [10] (100 μM), the “reduction of viability (%)” value was 29 ± 5%.

For the compound “N-(3-[2-furyl]acryloyl)-L-leucyl-glycyl-L-prolyl-L-alanine [FALGPA]”, the “MW-normalized SPR response” value in data set [11] worked out at 35 μ-refractive index units.

For the compound “isoamylphosphonyl-Gly-Pro-Ala [reference compound]”, the “inhibition of ColH-PD” value against ColH-PD [4] (40 µM) worked out at 81 ± 1%.
